# Data reported in the NIST ThermoML archive (doi:10.1021/je050317k).
# Numbers after ± are expanded uncertainties.
# Details: Liquid
smiles,measurement,setting,value
"CC(Cl)CCl (stereo unspecified) [1,2-dichloropropane]",vapor or sublimation pressure,333.15 K,30.14 ± 0.27 kPa
same,vapor or sublimation pressure,353.15 K,61.07 ± 0.44 kPa
"OCCCCO [1,4-butanediol]",vapor or sublimation pressure,383.15 K,0.664 ± 0.064 kPa
"C=CCCC=C [1,5-hexadiene]",vapor or sublimation pressure,333.15 K,103.15 ± 1.3 kPa
same,vapor or sublimation pressure,373.1 K,316.61 ± 2.2 kPa
CC(=O)OC(C)C [1-methylethyl ethanoate],vapor or sublimation pressure,333.15 K,37.73 ± 0.44 kPa
same,vapor or sublimation pressure,393.15 K,249.59 ± 1.8 kPa
same,vapor or sublimation pressure,453.15 K,939.9 ± 6 kPa
CC(C)C [2-methylpropane],vapor or sublimation pressure,298.15 K,352.39 ± 2.8 kPa
same,vapor or sublimation pressure,348.15 K,1212.7 ± 7.9 kPa
C=CCCl [3-chloro-1-propene],vapor or sublimation pressure,333.15 K,164.65 ± 1.6 kPa
same,vapor or sublimation pressure,373.1 K,489.25 ± 3.4 kPa
"Cl/C=C\CCl [(Z)-1,3-dichloro-1-propene]",vapor or sublimation pressure,333.15 K,22.61 ± 0.25 kPa
same,vapor or sublimation pressure,353.15 K,47.29 ± 0.42 kPa
CC#N [acetonitrile],vapor or sublimation pressure,333.15 K,49.16 ± 0.53 kPa
same,vapor or sublimation pressure,393.15 K,297.37 ± 2.1 kPa
same,vapor or sublimation pressure,453.15 K,1096.9 ± 7 kPa
CC(=O)c1ccccc1 [acetophenone],vapor or sublimation pressure,373.1 K,3.573 ± 0.091 kPa
same,vapor or sublimation pressure,433.15 K,32.02 ± 0.24 kPa
C=CCl [chloroethene],vapor or sublimation pressure,273.1 K,172 ± 1.8 kPa
same,vapor or sublimation pressure,313.15 K,601.5 ± 4 kPa
C1CO1 [oxirane],vapor or sublimation pressure,298.15 K,174.71 ± 1.6 kPa
same,vapor or sublimation pressure,348.15 K,766.7 ± 5 kPa
Oc1ccccc1 [phenol],vapor or sublimation pressure,373.1 K,5.506 ± 0.12 kPa
same,vapor or sublimation pressure,433.15 K,53.23 ± 0.37 kPa
O=C1CCCO1 [γ-butyrolactone],vapor or sublimation pressure,383.15 K,5.15 ± 0.087 kPa
